Data as given in patent publication US9944597B2, “Polysubstituted pyrroles having microtubule-disrupting, cytotoxic and antitumor activities and methods of use thereof” (THE BOARD OF REGENTS OF THE UNIVERSITY OF TEXAS SYSTEM, priority 2013, dated 2018).
Entries after “also recorded” stand apart in the source; their conditions may differ. Like-named read-outs stand apart in the source and are kept apart here.

How the values were obtained:
[1] = tested on: MDA-MB-435 (human melanoma cancer cells); conditions: Table 53; literature data from Da et al. 2013; read-out: MDA-MB-435 Antiproliferative IC50; cited from earlier work
A-10 cells [2] = conditions: Table 53; literature data from Da et al. 2013; read-out: Microtubule Depolymerization EC50; cited from earlier work
[3] = tested on: variety of cancer cell lines; conditions: average over a variety of cancer cell lines; read-out: antiproliferative activity, average IC50; cited from earlier work
P-glycoprotein = P-glycoprotein (Homo sapiens, UniProt P08183); conditions: cited from earlier work
P-glycoprotein, sequence (P08183 whole entry): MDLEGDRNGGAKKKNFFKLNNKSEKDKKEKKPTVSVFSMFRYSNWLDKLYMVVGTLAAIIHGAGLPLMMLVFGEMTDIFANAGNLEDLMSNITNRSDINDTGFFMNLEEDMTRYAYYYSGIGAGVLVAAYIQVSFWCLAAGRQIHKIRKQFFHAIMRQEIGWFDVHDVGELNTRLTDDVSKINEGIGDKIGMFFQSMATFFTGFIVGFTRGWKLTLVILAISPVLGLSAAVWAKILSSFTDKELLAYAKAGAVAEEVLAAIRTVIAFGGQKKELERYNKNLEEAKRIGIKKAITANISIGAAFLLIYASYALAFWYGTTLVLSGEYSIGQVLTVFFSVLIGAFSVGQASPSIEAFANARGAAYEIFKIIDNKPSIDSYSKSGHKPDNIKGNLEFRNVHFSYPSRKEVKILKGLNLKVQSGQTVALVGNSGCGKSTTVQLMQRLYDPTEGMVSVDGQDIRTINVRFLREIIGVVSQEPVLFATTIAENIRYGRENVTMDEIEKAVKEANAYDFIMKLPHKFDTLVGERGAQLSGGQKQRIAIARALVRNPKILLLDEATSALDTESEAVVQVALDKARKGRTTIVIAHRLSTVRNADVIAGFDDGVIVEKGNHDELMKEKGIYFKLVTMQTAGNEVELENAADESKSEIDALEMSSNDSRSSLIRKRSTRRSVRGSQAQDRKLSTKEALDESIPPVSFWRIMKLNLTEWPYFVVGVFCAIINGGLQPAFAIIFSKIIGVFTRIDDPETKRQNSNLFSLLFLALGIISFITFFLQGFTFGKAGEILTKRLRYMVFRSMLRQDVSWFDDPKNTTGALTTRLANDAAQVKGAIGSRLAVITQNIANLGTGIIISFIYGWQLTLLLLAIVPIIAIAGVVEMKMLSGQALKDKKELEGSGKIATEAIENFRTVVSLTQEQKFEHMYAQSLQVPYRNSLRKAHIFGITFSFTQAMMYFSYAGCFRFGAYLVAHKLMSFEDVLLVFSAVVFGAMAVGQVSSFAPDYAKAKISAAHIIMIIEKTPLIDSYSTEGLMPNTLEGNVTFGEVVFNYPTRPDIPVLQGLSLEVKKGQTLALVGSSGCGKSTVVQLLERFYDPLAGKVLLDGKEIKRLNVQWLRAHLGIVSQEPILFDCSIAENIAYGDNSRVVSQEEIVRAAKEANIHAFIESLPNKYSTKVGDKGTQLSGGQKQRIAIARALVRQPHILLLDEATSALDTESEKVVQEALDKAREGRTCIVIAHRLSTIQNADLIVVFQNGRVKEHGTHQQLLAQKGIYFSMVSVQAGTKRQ

PC-3 xenograft = conditions: i.p. dosing at relatively high doses, after 14 days of treatment; cited from earlier work
MDA-MB-435 xenograft = MDA-MB-435 xenograft murine model; assay type: in vivo
Method: The antitumor activity of NT-7-45 was evaluated in the MDA-MB-435 xenograft murine model of cancer. MDA-MB-435 cells were implanted subcutaneously into both flanks of nude mice. Mice were treated periodically with six injections of NT-7-45 i.p. at 75 mg/kg, suspended in a mixture of Tween80, DMSO and PBS.
The antitumor activity of NT-7-16 was evaluated in the MDA-MB-435 xenograft murine model of cancer. MDA-MB-435 cells were implanted subcutaneously into both flanks of nude mice. Mice were treated on days 1, 4, 7, 11, 14, 18, 20 and 22 by injecting NT-7-16 i.p. at 50 mg/kg suspended in a mixture of Tween80, DMSO and PBS. […] As shown in FIG. 5-7, NT-7-16 inhibited tumor growth as compared to vehicle-treated controls in a statistically significant (p<0.05) manner at days 11, 13, 15, 18 and 22.

[4] = tested on: MDA-MB-435 (human melanoma cancer cells); test: Antiproliferative SRB assay, MDA-MB-435; assay type: cell-based; conditions: Homo sapiens, MDA-MB-435; Table 53; own compounds; read-out: MDA-MB-435 Antiproliferative IC50
Outline: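 After 24 h attachment, MDA-MB-435 cells were exposed to compounds for 48 h, then fixed with trichloroacetic acid. Cellular protein was quantified by sulforhodamine B staining. IC50 for proliferation inhibition was taken from the linear portion of log concentration–response curves.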

HeLa cells [5] = test: Cell cycle distribution by flow cytometry; assay type: cell-based, human; conditions: HeLa cells treated for 18 hr; FIG. 3: 25 nM NT-7-16, 12.5 nM paclitaxel
Method: The effects of NT-7-16 on cell cycle distribution were determined. […] The cells were stained with Kirshan's reagent (Kirshan, Cell Biol. 66, 188-93 (1975)), and cell cycle distribution was measured using a Millipore Muse flow cytometer.
The effects of NT-7-16 on cell cycle distribution were determined. […] The cells were stained with Kirshan's reagent (Kirshan Cell Biol. 66, 188-93. (1975)), and cell cycle distribution was measured using a Millipore Muse flow cytometer.

[6] = target: colchicine binding site on tubulin (Sus scrofa, UniProt P02554); test: Colchicine site binding, fluorometric assay
colchicine binding site on tubulin, sequence (P02554 whole entry): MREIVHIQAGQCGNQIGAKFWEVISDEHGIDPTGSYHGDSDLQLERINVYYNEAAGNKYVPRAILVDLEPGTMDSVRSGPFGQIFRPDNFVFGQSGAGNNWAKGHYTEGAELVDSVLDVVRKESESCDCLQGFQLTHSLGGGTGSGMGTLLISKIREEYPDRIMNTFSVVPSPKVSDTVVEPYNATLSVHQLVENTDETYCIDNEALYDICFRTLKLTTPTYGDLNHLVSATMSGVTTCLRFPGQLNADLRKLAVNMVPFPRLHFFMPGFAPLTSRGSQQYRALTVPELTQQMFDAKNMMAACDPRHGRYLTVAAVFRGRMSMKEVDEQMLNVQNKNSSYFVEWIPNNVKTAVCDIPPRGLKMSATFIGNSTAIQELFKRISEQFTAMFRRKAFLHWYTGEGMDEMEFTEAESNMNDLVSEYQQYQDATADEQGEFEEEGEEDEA
colchicine binding site on tubulin, sequence (P02550 whole entry partner): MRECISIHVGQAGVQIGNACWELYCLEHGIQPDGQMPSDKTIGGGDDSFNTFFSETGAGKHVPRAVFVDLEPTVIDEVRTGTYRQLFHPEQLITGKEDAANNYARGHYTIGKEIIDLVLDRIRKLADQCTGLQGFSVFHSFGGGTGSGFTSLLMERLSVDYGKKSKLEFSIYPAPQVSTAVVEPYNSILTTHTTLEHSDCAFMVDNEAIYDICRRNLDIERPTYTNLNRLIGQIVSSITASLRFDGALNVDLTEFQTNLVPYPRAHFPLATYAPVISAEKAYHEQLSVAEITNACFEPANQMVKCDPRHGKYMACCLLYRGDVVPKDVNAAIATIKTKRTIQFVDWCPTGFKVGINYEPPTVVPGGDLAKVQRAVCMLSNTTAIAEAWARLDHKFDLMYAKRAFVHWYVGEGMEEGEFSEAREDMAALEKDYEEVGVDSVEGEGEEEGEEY

A-10 cells [7] = test: Cellular microtubule loss by indirect immunofluorescence; assay type: cell-based, rat; conditions: Rattus norvegicus, A10; Table 53; own compounds; read-out: Microtubule Depolymerization EC50
Outline: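 Rat embryonic vascular smooth muscle cells were treated across a range of compound concentrations. Microtubules were stained by indirect β-tubulin immunofluorescence, with DAPI for DNA. EC50 is the concentration giving about 50% interphase microtubule loss, scored visually, from curves over at least three experiments.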

[8] = target: T1, purified porcine brain tubulin (Sus scrofa, UniProt P02554); test: Inhibition of polymerization of purified tubulin (absorbance at 340 nm); assay type: biochemical
T1 construct: of Purified Porcine Brain Tubulin; from tissue; host or cells: porcine brain
T1 sequence (P02554 whole entry): as the sequence (P02554 whole entry) above
T1 sequence (P02550 whole entry partner): as the sequence (P02550 whole entry partner) above

HeLa cells [9] = test: Mitotic spindles by indirect immunofluorescence; assay type: cell-based, human; conditions: 18 h, 15 nM or 25 nM
Method: The effects of NT-7-16 on mitotic spindles were evaluated in HeLa cells by indirect immunofluorescence. HeLa cells were treated for 18 h with (A) vehicle (DMSO), (B) 15 nM NT-7-16 or (C) 25 nM NT-7-16. […] These effects are consistent with the actions of other microtubule disrupting agents. The presence of lagging chromosomes is indicated by the arrows and is caused by disruption of normal microtubule dynamics.

Row | Compound | IC50 [1] | EC50 (A-10 cells [2]) | IC50 [3] | substrate for transport by P-glycoprotein (P-glycoprotein) | reduction in tumor burden (PC-3 xenograft) | tumor growth in MDA-MB-435 xenograft (MDA-MB-435 xenograft; 50 mg/kg i.p. on days 1, 4, 7, 11, 14, 18, 20, 22, 25-day model) | toxicity in xenograft study (MDA-MB-435 xenograft; 50 mg/kg i.p., eight cumulative doses) | animal body weight (MDA-MB-435 xenograft; 50 mg/kg i.p., over 25 days) | IC50 [4] | cell cycle distribution (HeLa cells [5]) | inhibition at 10 µM ([6]; read-out: inhibition of colchicine binding to tubulin) | effect on colchicine binding (FIG. 9) ([6]; result in words) | EC50 (A-10 cells [7]) | inhibition of tubulin assembly ([8]; at concentrations of 2-5 μM) | effect on tubulin polymerization (turbidity, FIG. 2, FIG. 10) ([8]; result in words) | effects on mitotic spindles (HeLa cells [9])
1 | CCOC(=O)c1[nH]c(Br)c(-c2ccc(OC)c(OC)c2)c1Br [JG-03-14, 4-[(3,4-dimethoxy)-phenyl]-3,5-dibromopyrrole 2-carboxylic acid ethyl ester] | 36 ± 2 nM | 490 nM | 62 nM | poor substrate | greater than 50% | – | – | – | – | – | – | – | – | – | – | –
2 | CCOC(=O)c1[nH]c(Br)c(-c2ccc(OC)c(OC)c2OC)c1Br [NT-7-16, 3,5-Dibromo-4-(2,3,4-trimethoxyphenyl)-1H-pyrrole-2-carboxylic acid ethyl ester] | – | – | – | – | – | significant antitumor effects; also recorded: prevented tumor growth; also recorded: statistically significant (p<0.05) inhibition of tumor growth | no evidence of toxicity; also recorded: no overt toxicity | no significant change in animal body weight; also recorded: no significant weight loss | 14 ± 5 nM | initiated mitotic accumulation; also recorded: G2/M arrest | ~80% | concentration dependent inhibition of colchicine binding | 345 nM | almost total inhibition | concentration-dependent inhibition of tubulin assembly; also recorded: inhibits tubulin polymerization | aberrant mitotic spindles
